Measurements taken from US20100113421A1, “NON-NUCLEOSIDE REVERSE TRANSCRIPTASE INHIBITORS” (priority 2006, published 2010).

Tests used:
[1] = system: HIV strain containing the Y181C mutation; assay: Spread assay, Y181C mutant strain; format: cell-based; details: Human immunodeficiency virus 1; spread assay, 10% FBS, Y181C mutant strain; read-out: CIC95
Summary of the method: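 Acute HIV-1 infection of T-lymphoid cells run in the presence of 10% FBS, […]; potency expressed as CIC95.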

[2] = system: mutant strain containing both the K103N and Y181C mutations; assay: Spread assay, mutant strain containing both K103N and Y181C; format: cell-based, HIV; details: Human immunodeficiency virus 1; analogous spread assay, K103N and Y181C double mutant strain; read-out: CIC95
Experimental: Assays for the inhibition of acute HIV-1 infection of T-lymphoid cells (alternatively referred to herein as the “spread assay”) were conducted in accordance with Vacca, J. P. et al., Proc. Natl. Acad. Sci. USA 1994, 91: 4096. The assays (using 10% FBS) tested for inhibition of wild type HIV-1 and of HIV strains containing the Y181C or K103N mutation. […] (Note that the compound of Example 6 was tested only up to a 833 nM concentration and the CIC95 value was determined to be >833 nM. The compound of Example 78 was not tested in the Y1818C assay.) The compounds of Examples 1 to 119 (including Examples 70A and 70B) had CIC95 values of less than 1000 nanomolar in the assay employing the K103N mutant strain. In an analogous assay employing a mutant strain containing both the K103N and Y181C mutations, the compounds of Examples 70A, 70B and 78-115 had CIC95 values of less than 1000 nanomolar.

Cc1c(C(=O)N2CCCc3cc(O)ccc3C2)[nH]c(C(N)=O)c1S(=O)(=O)c1cc(Cl)cc(Cl)c1 [Example 86, 3-[(3,5-dichlorophenyl)sulfonyl]-4-methyl-5-(7-hydroxy-1,3,4,5-tetrahydro-2H-2-benzazepin-2-ylcarbonyl)-1H-pyrrole-2-carboxamide]
IC95 [1]: < 8 µM
IC95 [2]: < 1 µM

COc1ccc2c(c1)CCCN(C(=O)c1[nH]c(C(N)=O)c(S(=O)(=O)c3cc(C)cc(C)c3)c1C)C2 [Example 87, 3-[(3,5-dimethylphenyl)sulfonyl]-4-methyl-5-(7-methoxy-1,3,4,5-tetrahydro-2H-2-benzazepin-2-ylcarbonyl)-1H-pyrrole-2-carboxamide]
IC95 [1]: < 8 µM
IC95 [2]: < 1 µM

Cc1cc(C)cc(S(=O)(=O)c2c(C(N)=O)[nH]c(C(=O)N3CCCc4cc(O)ccc4C3)c2C)c1 [Example 88, 3-[(3,5-dimethylphenyl)sulfonyl]-4-methyl-5-(7-hydroxy-1,3,4,5-tetrahydro-2H-2-benzazepin-2-ylcarbonyl)-1H-pyrrole-2-carboxamide]
IC95 [1]: < 8 µM
IC95 [2]: < 1 µM

COc1ccc2c(c1)CN(C(=O)c1[nH]c(C(N)=O)c(S(=O)(=O)c3cc(C)cc(C)c3)c1C)CCC2 [Example 89, 3-[(3,5-dimethylphenyl)sulfonyl]-4-methyl-5-(8-methoxy-1,3,4,5-tetrahydro-2H-2-benzazepin-2-ylcarbonyl)-1H-pyrrole-2-carboxamide]
IC95 [1]: < 8 µM
IC95 [2]: < 1 µM

Cc1cc(C)cc(S(=O)(=O)c2c(C(N)=O)[nH]c(C(=O)N3CCCc4ccc(O)cc4C3)c2C)c1 [Example 90, 3-[(3,5-dimethylphenyl)sulfonyl]-4-methyl-5-(8-hydroxy-1,3,4,5-tetrahydro-2H-2-benzazepin-2-ylcarbonyl)-1H-pyrrole-2-carboxamide]
IC95 [1]: < 8 µM
IC95 [2]: < 1 µM

COc1ccc2c(c1)CN(C(=O)c1[nH]c(C(N)=O)c(S(=O)(=O)c3ccccc3)c1C)CCC2 [Example 91, 3-(phenylsulfonyl)-4-methyl-5-(8-methoxy-1,3,4,5-tetrahydro-2H-2-benzazepin-2-ylcarbonyl)-1H-pyrrole-2-carboxamide]
IC95 [1]: < 8 µM
IC95 [2]: < 1 µM

Cc1c(C(=O)N2CCCc3ccc(O)cc3C2)[nH]c(C(N)=O)c1S(=O)(=O)c1ccccc1 [Example 92, 3-(phenylsulfonyl)-4-methyl-5-(8-hydroxy-1,3,4,5-tetrahydro-2H-2-benzazepin-2-ylcarbonyl)-1H-pyrrole-2-carboxamide]
IC95 [1]: < 8 µM
IC95 [2]: < 1 µM

COc1ccc2c(c1)CN(C(=O)c1[nH]c(C(N)=O)c(S(=O)(=O)c3cccc(F)c3)c1C)CCC2 [Example 93, 3-[(3-fluorophenyl)sulfonyl]-4-methyl-5-(8-methoxy-1,3,4,5-tetrahydro-2H-2-benzazepin-2-ylcarbonyl)-1H-pyrrole-2-carboxamide]
IC95 [1]: < 8 µM
IC95 [2]: < 1 µM

Cc1c(C(=O)N2CCCc3ccc(O)cc3C2)[nH]c(C(N)=O)c1S(=O)(=O)c1cccc(F)c1 [Example 94, 3-[(3-fluorophenyl)sulfonyl]-4-methyl-5-(8-hydroxy-1,3,4,5-tetrahydro-2H-2-benzazepin-2-ylcarbonyl)-1H-pyrrole-2-carboxamide]
IC95 [1]: < 8 µM
IC95 [2]: < 1 µM

COc1ccc2c(c1)CN(C(=O)c1[nH]c(C(N)=O)c(S(=O)(=O)c3cccc(C(F)(F)F)c3)c1C)CCC2 [Example 95, 3-[(3-(1,1,1-trifluoromethyl)phenyl)sulfonyl]-4-methyl-5-(8-methoxy-1,3,4,5-tetrahydro-2H-2-benzazepin-2-ylcarbonyl)-1H-pyrrole-2-carboxamide]
IC95 [1]: < 8 µM
IC95 [2]: < 1 µM

Cc1c(C(=O)N2CCCc3sc(Cl)cc3C2)[nH]c(C(N)=O)c1S(=O)(=O)c1cc(Cl)cc(Cl)c1 [Example 96, 3-[(3,5-Dichlorophenyl)sulfonyl]-4-methyl-5-[(2-chloro-4,6,7,8-tetrahydro-5H-thieno[3,2-c]azepin-5-yl)carbonyl]-1H-pyrrole-2-carboxamide]
IC95 [1]: < 8 µM
IC95 [2]: < 1 µM

Cc1c(C(=O)N2CCCc3sc(S(C)(=O)=O)cc3C2)[nH]c(C(N)=O)c1S(=O)(=O)c1cc(Cl)cc(Cl)c1 [Example 97]
IC95 [1]: < 8 µM
IC95 [2]: < 1 µM

Cc1cc(C)cc(S(=O)(=O)c2c(C(N)=O)[nH]c(C(=O)N3CCCc4sc(S(C)(=O)=O)cc4C3)c2C)c1 [Example 98, 3-[(3,5-Dimethylphenyl)sulfonyl]-4-methyl-5-[(2-(methylsulfonyl)-4,6,7,8-tetrahydro-5H-thieno[3,2-c]azepin-5-yl)carbonyl]-1H-pyrrole-2-carboxamide]
IC95 [1]: < 8 µM
IC95 [2]: < 1 µM

CC(C)c1c(C(=O)N(C)Cc2ccnc(N)c2)[nH]c(C(N)=O)c1S(=O)(=O)c1cccc(F)c1 [Example 99, N5-[(2-aminopyridin-4-yl)methyl]-3-[(3-fluorophenyl)sulfonyl]-4-isopropyl-N5-methyl-1H-pyrrole-2,5-dicarboxamide]
IC95 [1]: < 8 µM
IC95 [2]: < 1 µM

CC(C)c1c(C(=O)N(C)Cc2ccnc(N)c2)[nH]c(C(N)=O)c1S(=O)(=O)c1cc(F)cc(F)c1 [Example 100, N5-[(2-aminopyridin-4-yl)methyl]-3-[(3,5-difluorophenyl)sulfonyl]-4-isopropyl-N5-methyl-1H-pyrrole-2,5-dicarboxamide]
IC95 [1]: < 8 µM
IC95 [2]: < 1 µM

CC(C)c1c(C(=O)N(C)Cc2ccnc(N)c2)[nH]c(C(N)=O)c1S(=O)(=O)c1ccccc1 [Example 101]
IC95 [1]: < 8 µM
IC95 [2]: < 1 µM

Cc1cc(C)cc(S(=O)(=O)c2c(C(N)=O)[nH]c(C(=O)N(C)Cc3ccnc(N)c3)c2C(C)C)c1 [Example 102, N5-[(2-aminopyridin-4-yl)methyl]-3-[(3,5-dimethylphenyl)sulfonyl]-4-isopropyl-N5-methyl-1H-pyrrole-2,5-dicarboxamide]
IC95 [1]: < 8 µM
IC95 [2]: < 1 µM

Cc1cc(C)cc(S(=O)(=O)c2c(C(N)=O)[nH]c(C(=O)N(C)Cc3cc(N)ncc3F)c2C)c1 [Example 103, N5-[(2-amino-5-fluoropyridin-4-yl)methyl]-3-[(3,5-dimethylphenyl)sulfonyl]-N5,4-dimethyl-1H-pyrrole-2,5-dicarboxamide]
IC95 [1]: < 8 µM
IC95 [2]: < 1 µM

CC(C)c1c(C(=O)N(C)Cc2cc(N)ncc2F)[nH]c(C(N)=O)c1S(=O)(=O)c1ccccc1 [Example 104]
IC95 [1]: < 8 µM
IC95 [2]: < 1 µM

Cc1cc(C)cc(S(=O)(=O)c2c(C(N)=O)[nH]c(C(=O)N(C)Cc3ccncc3Cl)c2C)c1 [Example 105, N5-[(3-chloropyridin-4-yl)methyl]-3-[(3,5-dimethylphenyl)sulfonyl]-N5,4-dimethyl-1H-pyrrole-2,5-dicarboxamide]
IC95 [1]: < 8 µM
IC95 [2]: < 1 µM

CC(C)c1c(C(=O)N(C)Cc2ccncc2Cl)[nH]c(C(N)=O)c1S(=O)(=O)c1ccccc1 [Example 106, N2-[(3-chloropyridin-4-yl)methyl]-3-isopropyl-N2-methyl-4-(phenylsulfonyl)-1H-pyrrole-2,5-dicarboxamide]
IC95 [1]: < 8 µM
IC95 [2]: < 1 µM

Cc1cc(C)cc(S(=O)(=O)c2c(C(N)=O)[nH]c(C(=O)N(C)Cc3ccnc(Cl)c3F)c2C)c1 [Example 107, N5-[(2-chloro-3-fluoropyridin-4-yl)methyl]-3-[(3,5-dimethylphenyl)sulfonyl]-N5,4-dimethyl-1H-pyrrole-2,5-dicarboxamide]
IC95 [1]: < 8 µM
IC95 [2]: < 1 µM
